Consider one molecule from ChEMBL document CHEMBL1201862, “PubChem BioAssay data set” (2004).

The target in assay [1] is T1, Exodeoxyribonuclease V (Escherichia coli (strain K12), UniProt P04993+P07648+P08394).
T1 sequence (P04993 whole entry): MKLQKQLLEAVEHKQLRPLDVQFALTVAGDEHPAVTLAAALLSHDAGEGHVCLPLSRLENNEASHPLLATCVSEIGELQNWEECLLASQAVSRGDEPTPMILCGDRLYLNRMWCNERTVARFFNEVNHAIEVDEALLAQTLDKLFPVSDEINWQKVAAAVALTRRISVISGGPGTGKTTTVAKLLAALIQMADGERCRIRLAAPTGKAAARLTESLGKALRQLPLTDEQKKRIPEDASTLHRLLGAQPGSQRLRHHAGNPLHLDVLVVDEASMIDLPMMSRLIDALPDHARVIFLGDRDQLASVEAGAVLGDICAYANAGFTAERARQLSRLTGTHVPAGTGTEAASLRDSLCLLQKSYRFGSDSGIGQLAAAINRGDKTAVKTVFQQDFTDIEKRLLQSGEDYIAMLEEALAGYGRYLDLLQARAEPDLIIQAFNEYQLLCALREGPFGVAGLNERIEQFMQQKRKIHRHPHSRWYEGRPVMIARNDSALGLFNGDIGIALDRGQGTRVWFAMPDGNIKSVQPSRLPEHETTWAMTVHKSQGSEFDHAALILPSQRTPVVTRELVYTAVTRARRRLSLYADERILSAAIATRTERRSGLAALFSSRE
T1 sequence (P07648 whole entry): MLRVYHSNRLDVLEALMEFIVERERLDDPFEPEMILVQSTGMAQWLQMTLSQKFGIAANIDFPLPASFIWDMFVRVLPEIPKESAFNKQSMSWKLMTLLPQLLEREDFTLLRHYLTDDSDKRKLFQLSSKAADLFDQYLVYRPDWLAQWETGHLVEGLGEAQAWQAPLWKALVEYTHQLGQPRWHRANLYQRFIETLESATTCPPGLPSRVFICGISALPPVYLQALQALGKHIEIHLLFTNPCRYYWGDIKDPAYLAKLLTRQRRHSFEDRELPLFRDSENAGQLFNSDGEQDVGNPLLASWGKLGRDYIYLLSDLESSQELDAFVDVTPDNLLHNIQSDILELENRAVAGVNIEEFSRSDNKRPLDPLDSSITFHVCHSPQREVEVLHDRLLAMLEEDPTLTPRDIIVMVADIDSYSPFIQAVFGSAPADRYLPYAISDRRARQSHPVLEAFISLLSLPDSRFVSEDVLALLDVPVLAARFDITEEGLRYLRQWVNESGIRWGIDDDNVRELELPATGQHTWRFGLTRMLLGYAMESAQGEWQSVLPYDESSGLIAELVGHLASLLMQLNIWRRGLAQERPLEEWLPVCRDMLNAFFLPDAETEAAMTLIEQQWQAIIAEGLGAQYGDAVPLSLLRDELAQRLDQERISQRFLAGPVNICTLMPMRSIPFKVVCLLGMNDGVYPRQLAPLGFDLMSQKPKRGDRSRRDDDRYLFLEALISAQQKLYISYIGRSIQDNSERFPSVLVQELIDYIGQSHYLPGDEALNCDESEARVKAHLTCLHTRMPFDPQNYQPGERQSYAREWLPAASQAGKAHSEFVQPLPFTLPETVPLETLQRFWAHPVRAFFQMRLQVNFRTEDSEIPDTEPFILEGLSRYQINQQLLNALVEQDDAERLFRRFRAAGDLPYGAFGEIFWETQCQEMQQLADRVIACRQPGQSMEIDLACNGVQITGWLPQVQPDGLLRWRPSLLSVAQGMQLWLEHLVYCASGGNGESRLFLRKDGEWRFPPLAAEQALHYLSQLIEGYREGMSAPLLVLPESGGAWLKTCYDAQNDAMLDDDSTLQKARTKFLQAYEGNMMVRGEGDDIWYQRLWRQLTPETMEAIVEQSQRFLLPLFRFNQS
T1 sequence (P08394 whole entry): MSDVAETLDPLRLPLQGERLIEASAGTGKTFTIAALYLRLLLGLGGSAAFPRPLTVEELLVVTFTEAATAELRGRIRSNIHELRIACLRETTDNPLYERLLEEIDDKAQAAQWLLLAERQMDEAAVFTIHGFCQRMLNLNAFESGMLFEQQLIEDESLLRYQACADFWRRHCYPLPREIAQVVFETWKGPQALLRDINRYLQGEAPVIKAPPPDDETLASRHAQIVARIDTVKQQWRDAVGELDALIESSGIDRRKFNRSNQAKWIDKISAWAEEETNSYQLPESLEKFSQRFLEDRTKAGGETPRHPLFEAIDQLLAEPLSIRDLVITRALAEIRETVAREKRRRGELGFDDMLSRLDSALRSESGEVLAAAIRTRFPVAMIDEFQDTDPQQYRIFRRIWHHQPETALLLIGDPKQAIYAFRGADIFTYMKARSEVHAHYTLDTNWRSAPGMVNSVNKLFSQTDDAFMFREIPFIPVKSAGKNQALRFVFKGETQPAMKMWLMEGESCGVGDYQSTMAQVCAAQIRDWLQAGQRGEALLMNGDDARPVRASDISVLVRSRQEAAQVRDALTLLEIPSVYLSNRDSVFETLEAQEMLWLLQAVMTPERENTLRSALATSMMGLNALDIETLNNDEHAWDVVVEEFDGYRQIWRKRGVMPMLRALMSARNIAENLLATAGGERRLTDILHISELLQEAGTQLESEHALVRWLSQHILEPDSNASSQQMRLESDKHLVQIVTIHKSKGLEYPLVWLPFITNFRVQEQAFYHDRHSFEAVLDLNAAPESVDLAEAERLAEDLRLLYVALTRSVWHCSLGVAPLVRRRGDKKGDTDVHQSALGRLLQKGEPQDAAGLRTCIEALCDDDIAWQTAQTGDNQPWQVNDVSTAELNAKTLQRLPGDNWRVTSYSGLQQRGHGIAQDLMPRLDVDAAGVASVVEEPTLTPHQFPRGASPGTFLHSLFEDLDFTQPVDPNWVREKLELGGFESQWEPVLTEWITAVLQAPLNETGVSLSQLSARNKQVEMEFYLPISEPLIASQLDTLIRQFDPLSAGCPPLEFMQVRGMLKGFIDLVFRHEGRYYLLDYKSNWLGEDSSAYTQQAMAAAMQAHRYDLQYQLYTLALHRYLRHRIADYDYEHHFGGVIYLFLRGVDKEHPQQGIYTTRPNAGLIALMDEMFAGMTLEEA
The assay is described as follows: E. coli RecBCD inhibitors, dose response, counter-screen for AddAB inhibitor project, absorbance, V66 E. coli, mutant T4 phage (AID 492957). The class given is functional, cell-based, Escherichia coli str. K-12 substr. MG1655. On the technique in general: Counterscreens check selectivity or assay interference.

Assay [2] has as its system HEK293. Nature of the assay: SAR Analysis of small molecule inhibitors of T-cell specific antigen receptor-induced NF-kB activation in a HEK-293T cell line using a luminescence assay - Set 2. [Related pubchem assays (depositor defined):AID435003, AID435012, AID489026]. The following applies: Homo sapiens. In kind it is functional, cell-based.
Assay [3] in a line: HepG2 cell cytotoxicity, dose response, cytotoxicity control for Shn3 inhibitor project, CellTiter-Glo, cherry-picked (AID 624134). In kind it is functional, cell-based.
Assay [4] relates to HEK293. Nature of the assay: cytotoxicity in HEK293T NF-kB-Luc cells, SAR follow-up, cytotoxicity control for NF-kB activator project, cell-based, resazurin fluorescence (AID 493251). The class given is functional. To be noted: Homo sapiens. (In general: Alamar Blue is a resazurin reagent that responds to reducing activity.)
Assay [5] concerns Jurkat. Nature of the assay: SAR Analysis of small molecule inhibitors of T-cell specific antigen receptor-induced NF-kB activation in a Jurkat cell line using a luminescence assay - Set 2. [Related pubchem assays (depositor defined):AID435003, AID435012, AID465]. The class given is functional, cell-based. The following applies: Homo sapiens.
A short description of assay [6]: Counterscreen for AddAB inhibitors: absorbance-based bacterial cell-based high throughput dose response assay for inhibitors of bacterial viability. [Related pubchem assays (depositor defined):AID435030, AID449728, AID449731, AID488942, AID488955, AID488956]. The class given is functional.
Assay [7] in a line: Shn3 3'UTR reporter inhibitors, dose response, cell-based, Clone20 osteoblasts, firefly luciferase, cherry-picked (AID 624132).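 Further: firefly luciferase luminescence from reporter carrying the Shn3 3'UTR in osteoblasts.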 In kind it is functional.
The nature of assay [8]: control 3'UTR Renilla luciferase suppression, dose response, counter-screen for Shn3 inhibitor project, cell-based, Clone20-Shn3RL, cherry-picked (AID 624133). The class given is functional.

The term IC50 denotes the concentration that inhibits the measured activity by half. By AC50 is commonly meant the midpoint of the concentration-response curve, whichever way the signal moves.

Calls of active or inactive are those of the source. Where only a bound is given, the exact number is not on record here.

In the case of `O=C(Nc1ccc2oc(-c3ccncc3)nc2c1)c1ccc([N+](=O)[O-])o1`, the IC50 in assay [1] was > 119 µM (inactive); in assay [2] it was 41.5 µM (inactive); in assay [4], > 80 µM (inactive); in assay [5], 55.5 µM (inactive); in assay [6] it was > 119 µM (inactive). The AC50 in assay [3] was > 70 µM (inactive); in assay [7] it was 18.6 µM (active); in assay [8], 20.7 µM (active).
